Test results taken from patent publication US12077503B2, “Substituted cyclic amides and their use as herbicides” (FMC CORPORATION, priority 2015, dated 2024).
Like-named read-outs stand apart in the source and are kept apart here.

What was measured:
Type in all cases: in vivo
[1] = system: Kochia (Kochia scoparia); experiment: Test A preemergence; details: Bassia scoparia, pre-emergence, 240 h; for pest or weed control at 500 g/ha: 500 g ai/ha, preemergence
Method in brief: (§1)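 Greenhouse, ~10 d after spray; visual injury vs untreated controls, 0 = no effect, 100 = complete control. Preemergence: directed soil spray over planted seeds. Postemergence: plants 2–10 cm, 1–2 leaf stage. Loam/sand blend. Compound in non-phytotoxic solvent with surfactant.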

[2] = system: barnyardgrass (Echinochloa crus-galli); experiment: Test A preemergence; details: Echinochloa crus-galli, pre-emergence, 240 h; for pest or weed control at 500 g/ha: 500 g ai/ha, preemergence; for pest or weed control at 125 g/ha: Preemergence, 125 g ai/ha
Method in brief: as §1

[3] = system: giant foxtail (Setaria faberii); experiment: Test A preemergence; details: Setaria faberi, pre-emergence, 240 h; for pest or weed control at 500 g/ha: 500 g ai/ha, preemergence; for pest or weed control at 125 g/ha: Preemergence, 125 g ai/ha
Method in brief: as §1

[4] = system: ragweed (common ragweed, Ambrosia elatior); experiment: Test A preemergence; details: Ambrosia artemisiifolia, pre-emergence, 240 h; for pest or weed control at 500 g/ha: 500 g ai/ha, preemergence
Method in brief: as §1

[5] = system: ryegrass, Italian (Italian ryegrass, Lolium multiflorum); experiment: Test A preemergence; details: Lolium multiflorum, pre-emergence, 240 h, 0 to 100 scale (0 no effect, 100 complete control), read-out: Plant response rating, Ryegrass, Italian; for pest or weed control at 125 g/ha: Preemergence, 125 g ai/ha
Method in brief: as §1

[6] = system: Galium (catchweed bedstraw, Galium aparine); experiment: Test A postemergence; details: Galium, post-emergence, 240 h, Postemergence; for pest or weed control at 125 g/ha: 125 g ai/ha, visual rating about 10 d after treatment, read-out: Galium plant response rating (0 to 100 scale); for pest or weed control at 500 g/ha: 500 g ai/ha, visual injury, 0 to 100 scale (0 no effect, 100 complete control), approx. 10 d, read-out: Plant response rating, Galium
Method in brief: as §1

[7] = system: Kochia (Kochia scoparia); experiment: Test A postemergence; details: Bassia scoparia, post-emergence, 240 h, Postemergence; for pest or weed control at 125 g/ha: 125 g ai/ha, visual rating about 10 d after treatment, read-out: Kochia plant response rating (0 to 100 scale); for pest or weed control at 500 g/ha: 500 g ai/ha, visual injury, 0 to 100 scale (0 no effect, 100 complete control), approx. 10 d, read-out: Plant response rating, Kochia
Method in brief: as §1

[8] = system: blackgrass (Alopecurus myosuroides); experiment: Test A postemergence; details: Alopecurus myosuroides, post-emergence, 240 h, Postemergence; for pest or weed control at 125 g/ha: 125 g ai/ha, visual rating about 10 d after treatment, read-out: Blackgrass plant response rating (0 to 100 scale); for pest or weed control at 500 g/ha: 500 g ai/ha, visual injury, 0 to 100 scale (0 no effect, 100 complete control), approx. 10 d, read-out: Plant response rating, Blackgrass
Method in brief: as §1

[9] = system: corn (Zea mays); experiment: Test A postemergence; details: Zea mays, post-emergence, 240 h, Postemergence; for plant injury at 125 g/ha: 125 g ai/ha, visual rating about 10 d after treatment, read-out: Corn plant response rating (0 to 100 scale); for Corn plant response rating (crop injury, 0 = no effect, 100 = complete kill) at 500 g/ha: 500 g ai/ha, visual injury, 0 to 100 scale (0 no effect, 100 complete control), approx. 10 d
Method in brief: as §1

[10] = system: giant foxtail (Setaria faberii); experiment: Test A postemergence; details: Setaria faberi, post-emergence, 240 h, Postemergence; for pest or weed control at 125 g/ha: 125 g ai/ha, visual rating about 10 d after treatment, read-out: Foxtail, Giant plant response rating (0 to 100 scale); for pest or weed control at 500 g/ha: 500 g ai/ha, visual injury, 0 to 100 scale (0 no effect, 100 complete control), approx. 10 d, read-out: Plant response rating, Foxtail, Giant
Method in brief: as §1

[11] = system: pigweed (Amaranthus retroflexus); experiment: Test A postemergence; details: Amaranthus retroflexus, post-emergence, 240 h, Postemergence; for pest or weed control at 125 g/ha: 125 g ai/ha, visual rating about 10 d after treatment, read-out: Pigweed plant response rating (0 to 100 scale); for pest or weed control at 500 g/ha: 500 g ai/ha, visual injury, 0 to 100 scale (0 no effect, 100 complete control), approx. 10 d, read-out: Plant response rating, Pigweed
Method in brief: as §1

[12] = system: ragweed (common ragweed, Ambrosia elatior); experiment: Test A postemergence; details: Ambrosia artemisiifolia, post-emergence, 240 h, Postemergence; for pest or weed control at 125 g/ha: 125 g ai/ha, visual rating about 10 d after treatment, read-out: Ragweed plant response rating (0 to 100 scale); for pest or weed control at 500 g/ha: 500 g ai/ha, visual injury, 0 to 100 scale (0 no effect, 100 complete control), approx. 10 d, read-out: Plant response rating, Ragweed
Method in brief: as §1

[13] = system: ryegrass, Italian (Italian ryegrass, Lolium multiflorum); experiment: Test A postemergence; details: Lolium multiflorum, post-emergence, 240 h, Postemergence; for pest or weed control at 125 g/ha: 125 g ai/ha, visual rating about 10 d after treatment, read-out: Ryegrass, Italian plant response rating (0 to 100 scale); for pest or weed control at 500 g/ha: 500 g ai/ha, visual injury, 0 to 100 scale (0 no effect, 100 complete control), approx. 10 d, read-out: Plant response rating, Ryegrass, Italian
Method in brief: as §1

[14] = system: wheat (Triticum aestivum); experiment: Test A postemergence; details: Triticum aestivum, post-emergence, 240 h, Postemergence; for plant injury at 125 g/ha: 125 g ai/ha, visual rating about 10 d after treatment, read-out: Wheat plant response rating (0 to 100 scale); for plant injury at 500 g/ha: 500 g ai/ha, visual injury, 0 to 100 scale (0 no effect, 100 complete control), approx. 10 d, read-out: Plant response rating, Wheat
Method in brief: as §1

[15] = 0 to 100 scale (0 no effect, 100 complete control), read-out: Plant response rating, Barnyardgrass
[16] = 0 to 100 scale (0 no effect, 100 complete control), read-out: Plant response rating, Foxtail, Giant

Which pest or weed control at 500 g/ha ([1]; 0 to 100 scale where 0 is no effect and 100 is complete control, read-out: Kochia plant response rating) does the source give for `Cc1cc([C@H]2CN(C)C(=O)[C@@H]2C(=O)Nc2cccc(F)c2C)ccc1F` [Compound 1311] here?
Its pest or weed control at 500 g/ha is 100%.

And the pest or weed control at 125 g/ha ([1]; Preemergence, 125 g ai/ha, 0 to 100 scale (0 no effect, 100 complete control), read-out: Plant response rating, Kochia)?
The pest or weed control at 125 g/ha was 70%.

What about the pest or weed control at 500 g/ha ([2]; 0 to 100 scale where 0 is no effect and 100 is complete control, read-out: Barnyardgrass plant response rating) of the same compound?
Its pest or weed control at 500 g/ha is 100%.

And the pest or weed control at 125 g/ha [2, 15]?
The pest or weed control at 125 g/ha was 100%.

And the pest or weed control at 500 g/ha ([3]; 0 to 100 scale where 0 is no effect and 100 is complete control, read-out: Foxtail, Giant plant response rating)?
The pest or weed control at 500 g/ha was 100%.

And the pest or weed control at 125 g/ha [3, 16]?
The pest or weed control at 125 g/ha was 100%.

What about the pest or weed control at 500 g/ha ([4]; 0 to 100 scale where 0 is no effect and 100 is complete control, read-out: Ragweed plant response rating) of the same compound?
The pest or weed control at 500 g/ha was 90%.

And the pest or weed control at 125 g/ha [5]?
Its pest or weed control at 125 g/ha is 70%.

And the pest or weed control at 125 g/ha [6]?
The pest or weed control at 125 g/ha was 50%.

What about the pest or weed control at 500 g/ha [6] of the same compound?
The pest or weed control at 500 g/ha was 60%.

What about the pest or weed control at 125 g/ha [7] of the same compound?
Its pest or weed control at 125 g/ha is 30%.

And the pest or weed control at 500 g/ha [7]?
The pest or weed control at 500 g/ha was 50%.

What about the pest or weed control at 125 g/ha [8] of the same compound?
Its pest or weed control at 125 g/ha is 60%.

What about the pest or weed control at 500 g/ha [8] of the same compound?
Its pest or weed control at 500 g/ha is 60%.

And the plant injury at 125 g/ha [9]?
The plant injury at 125 g/ha was 70%.

What about the Corn plant response rating (crop injury, 0 = no effect, 100 = complete kill) at 500 g/ha [9] of the same compound?
The Corn plant response rating (crop injury, 0 = no effect, 100 = complete kill) at 500 g/ha was 80%.

What about the pest or weed control at 125 g/ha [10] of the same compound?
Its pest or weed control at 125 g/ha is 90%.

And the pest or weed control at 500 g/ha [10]?
The pest or weed control at 500 g/ha was 90%.

What about the pest or weed control at 125 g/ha [11] of the same compound?
Its pest or weed control at 125 g/ha is 0%.

What about the pest or weed control at 500 g/ha [11] of the same compound?
Its pest or weed control at 500 g/ha is 20%.

And the pest or weed control at 125 g/ha [12]?
Its pest or weed control at 125 g/ha is 0%.

And the pest or weed control at 500 g/ha [12]?
Its pest or weed control at 500 g/ha is 30%.

What about the pest or weed control at 125 g/ha [13] of the same compound?
The pest or weed control at 125 g/ha was 40%.

And the pest or weed control at 500 g/ha [13]?
Its pest or weed control at 500 g/ha is 80%.

What about the plant injury at 125 g/ha [14] of the same compound?
Its plant injury at 125 g/ha is 60%.

What about the plant injury at 500 g/ha [14] of the same compound?
The plant injury at 500 g/ha was 80%.

With `COc1cc(OC)cc([C@H]2CN(C)C(=O)[C@@H]2C(=O)Nc2cccc(F)c2F)c1` [Compound 1370] as the compound, how does the pest or weed control at 500 g/ha ([1]; 0 to 100 scale (0 no effect, 100 complete control), read-out: Plant response rating, Kochia) read?
Its pest or weed control at 500 g/ha is 80%.

And the pest or weed control at 500 g/ha [2, 15]?
The pest or weed control at 500 g/ha was 90%.

What about the pest or weed control at 125 g/ha [2, 15] of the same compound?
The pest or weed control at 125 g/ha was 90%.

And the pest or weed control at 500 g/ha [3, 16]?
Its pest or weed control at 500 g/ha is 90%.

And the pest or weed control at 125 g/ha [3, 16]?
Its pest or weed control at 125 g/ha is 90%.

What about the pest or weed control at 500 g/ha ([4]; 0 to 100 scale (0 no effect, 100 complete control), read-out: Plant response rating, Ragweed) of the same compound?
Its pest or weed control at 500 g/ha is 80%.

What about the pest or weed control at 125 g/ha ([4]; Preemergence, 125 g ai/ha, 0 to 100 scale (0 no effect, 100 complete control), read-out: Plant response rating, Ragweed) of the same compound?
The pest or weed control at 125 g/ha was 40%.

And the pest or weed control at 500 g/ha ([5]; 500 g ai/ha, preemergence)?
Its pest or weed control at 500 g/ha is 90%.

What about the pest or weed control at 125 g/ha [5] of the same compound?
Its pest or weed control at 125 g/ha is 80%.

What about the pest or weed control at 125 g/ha [6] of the same compound?
The pest or weed control at 125 g/ha was 40%.

And the pest or weed control at 500 g/ha [6]?
The pest or weed control at 500 g/ha was 50%.

And the pest or weed control at 125 g/ha [7]?
The pest or weed control at 125 g/ha was 50%.

What about the pest or weed control at 500 g/ha [7] of the same compound?
Its pest or weed control at 500 g/ha is 50%.

What about the pest or weed control at 125 g/ha [8] of the same compound?
The pest or weed control at 125 g/ha was 50%.

And the pest or weed control at 500 g/ha [8]?
Its pest or weed control at 500 g/ha is 80%.

What about the plant injury at 125 g/ha [9] of the same compound?
Its plant injury at 125 g/ha is 30%.

And the Corn plant response rating (crop injury, 0 = no effect, 100 = complete kill) at 500 g/ha [9]?
Its Corn plant response rating (crop injury, 0 = no effect, 100 = complete kill) at 500 g/ha is 80%.

What about the pest or weed control at 125 g/ha [10] of the same compound?
The pest or weed control at 125 g/ha was 90%.

And the pest or weed control at 500 g/ha [10]?
Its pest or weed control at 500 g/ha is 90%.

What about the pest or weed control at 125 g/ha [11] of the same compound?
The pest or weed control at 125 g/ha was 0%.

What about the pest or weed control at 500 g/ha [11] of the same compound?
Its pest or weed control at 500 g/ha is 30%.

What about the pest or weed control at 125 g/ha [12] of the same compound?
The pest or weed control at 125 g/ha was 0%.

What about the pest or weed control at 500 g/ha [12] of the same compound?
The pest or weed control at 500 g/ha was 30%.

And the pest or weed control at 125 g/ha [13]?
The pest or weed control at 125 g/ha was 40%.

And the pest or weed control at 500 g/ha [13]?
The pest or weed control at 500 g/ha was 70%.

And the plant injury at 125 g/ha [14]?
The plant injury at 125 g/ha was 40%.

What about the plant injury at 500 g/ha [14] of the same compound?
The plant injury at 500 g/ha was 70%.
